Laboratory results: patent US20070098787A1, “Composition for preventing and treating varicose veins of lower extremities” (MOCHIDA PHARMACEUTICAL CO., LTD., priority 2003, published 2007)

System: varicose veins of lower extremities
Experiment: Case report: patient with varicose veins of lower extremities, Dorner replaced with EPADEL S
Format: in vivo, human
Settings: person
Protocol: A person diagnosed with hypertension, diabetes, hyperlipidemia, and varicose veins of lower extremities (serious conditions with multiple dilatations, winding varices, and skin pigmentation in both legs) was administered with Dorner (trade name; manufactured by Toray Industries, Inc.; generic name, beraprost sodium; a therapeutic agent for chronic artery occlusion) in expectation of therapeutic effect on varicose veins of lower extremities together with Adalat L (trade name; manufactured by Bayer; generic name, nifedipine; coronary vasodilator), Basen (trade name; manufactured by Takeda Pharmaceutical Company Limited; generic name, voglibose; α-glucosidase inhibitor), Lochol (trade name; manufactured by Ciba Geigy Japan Ltd.; generic name, fluvastatin sodium; HMG-CoA reductase inhibitor), and NU-LOTAN (trade name; manufactured by Banyu Pharmaceutical Co., Ltd.; generic name, losartan potassium; angiotensin II receptor antagonist). […] Accordingly, Dorner was replaced with EPADEL S (trade name; manufactured by Mochida Pharmaceutical Co., Ltd.; generic name, ethyl eicosapentate (EPA-E)) at a dose of 600 mg×3 packets per day. […] The skin pigmentation also disappeared. […] No therapeutic method was changed except the change of the drug from Dorner to EPADEL S.

[1] = 600 mg×3 packets per day, after about 1 month, Dorner replaced, other medication unchanged

Compound: CC/C=C\C/C=C\C/C=C\C/C=C\C/C=C\CCCC(=O)OCC [EPADEL S, ethyl eicosapentate]
- adverse event presumably caused by the drug (600 mg×3 packets per day, about 1 month): No adverse event
- skin pigmentation (600 mg×3 packets per day, after about 1 month): disappeared
- varicose veins in the left leg [1]: substantial improvement
- varicose veins in the right leg [1]: substantial disappearance

Compound: CC#CCC(C)[C@H](O)/C=C/[C@@H]1[C@H]2c3cccc(CCCC(=O)O)c3O[C@H]2C[C@H]1O (mixture of isomers) [Dorner, beraprost sodium]
- improvement in the varicose veins of lower extremities (serious conditions in both legs, Dorner given together with Adalat L, Basen, Lochol and NU-LOTAN, after the medication): No improvement
